Data from the NIST ThermoML archive (doi:10.1016/j.jct.2016.10.023).

Assay: xn = mol fraction of the nth substance listed
Settings: Constant-volume piezometry

CCCCC [pentane] + CCCO
mass density [kg/m3]
Settings	Fluid (supercritical or subcritical phases)	Gas
518.15 K, 4877 kPa, x1 = 0.2	220.15	–
518.15 K, 4965 kPa, x1 = 0.2	259.26	–
518.15 K, 4994 kPa, x1 = 0.2	272.43	–
518.15 K, 5010 kPa, x1 = 0.2	290.61	–
523.15 K, 954 kPa, x1 = 0.5	–	15.52
523.15 K, 1314 kPa, x1 = 0.8	–	22.52
523.15 K, 1549 kPa, x1 = 0.2	–	24.93
523.15 K, 1732 kPa, x1 = 0.5	–	29.98
523.15 K, 1978 kPa, x1 = 0.8	–	36.69
523.15 K, 2284 kPa, x1 = 0.5	–	40.49
523.15 K, 2704 kPa, x1 = 0.5	–	51.09
523.15 K, 2890 kPa, x1 = 0.8	–	58.41
523.15 K, 3111 kPa, x1 = 0.2	–	53.01
523.15 K, 3416 kPa, x1 = 0.5	–	67.52
523.15 K, 3421 kPa, x1 = 0.8	–	73.79
523.15 K, 3614 kPa, x1 = 0.5	–	72.6
523.15 K, 3631 kPa, x1 = 0.9	83.38	–
523.15 K, 4037 kPa, x1 = 0.2	–	91.41
523.15 K, 4041 kPa, x1 = 0.5	–	88.91
523.15 K, 4261 kPa, x1 = 0.5	–	95.85
523.15 K, 4356 kPa, x1 = 0.8	106.4	–
523.15 K, 4459 kPa, x1 = 0.2	114.35	114.35
523.15 K, 4600 kPa, x1 = 0.9	123.35	–
523.15 K, 4817 kPa, x1 = 0.9	134.12	–
523.15 K, 4864 kPa, x1 = 0.2	150.34	–
523.15 K, 4871 kPa, x1 = 0.5	121.89	–
523.15 K, 5043 kPa, x1 = 0.2	175.61	–
523.15 K, 5108 kPa, x1 = 0.2	189.64	–
523.15 K, 5158 kPa, x1 = 0.8	140.3	–
523.15 K, 5206 kPa, x1 = 0.5	144.11	–
523.15 K, 5208 kPa, x1 = 0.2	220.1	–
523.15 K, 5292 kPa, x1 = 0.2	245.47	–
523.15 K, 5316 kPa, x1 = 0.9	163.95	–
523.15 K, 5328 kPa, x1 = 0.2	259.2	–
523.15 K, 5343 kPa, x1 = 0.2	262.9	–
523.15 K, 5359 kPa, x1 = 0.5	154.49	–
523.15 K, 5364 kPa, x1 = 0.2	272.36	–
523.15 K, 5370 kPa, x1 = 0.8	156.04	–
523.15 K, 5423 kPa, x1 = 0.2	290.54	–
523.15 K, 5483 kPa, x1 = 0.2	306.83	–
523.15 K, 5508 kPa, x1 = 0.2	311.06	–
523.15 K, 5518 kPa, x1 = 0.5	165.14	–
523.15 K, 5551 kPa, x1 = 0.2	318.77	–
523.15 K, 5586 kPa, x1 = 0.8	169.78	–
523.15 K, 5668 kPa, x1 = 0.8	176.03	–
523.15 K, 5707 kPa, x1 = 0.2	341.26	–
523.15 K, 5707 kPa, x1 = 0.5	182.85	–
523.15 K, 5717 kPa, x1 = 0.9	189.45	–
523.15 K, 5731 kPa, x1 = 0.2	344.05	–
523.15 K, 5763 kPa, x1 = 0.8	180.83	–
523.15 K, 5911 kPa, x1 = 0.9	202.38	–
523.15 K, 5913 kPa, x1 = 0.5	200.39	–
523.15 K, 5925 kPa, x1 = 0.8	193.16	–
523.15 K, 6011 kPa, x1 = 0.5	210.22	–
523.15 K, 6117 kPa, x1 = 0.5	224.05	–
523.15 K, 6195 kPa, x1 = 0.9	220.68	–
523.15 K, 6235 kPa, x1 = 0.5	241.5	–
523.15 K, 6236 kPa, x1 = 0.8	213.85	–
523.15 K, 6242 kPa, x1 = 0.2	378.64	–
523.15 K, 6294 kPa, x1 = 0.5	250.69	–
523.15 K, 6320 kPa, x1 = 0.8	219.62	–
523.15 K, 6339 kPa, x1 = 0.2	383.45	–
523.15 K, 6353 kPa, x1 = 0.5	259.74	–
523.15 K, 6399 kPa, x1 = 0.9	233.06	–
523.15 K, 6454 kPa, x1 = 0.9	236.53	–
523.15 K, 6480 kPa, x1 = 0.5	270.56	–
523.15 K, 6513 kPa, x1 = 0.9	240.93	–
523.15 K, 6560 kPa, x1 = 0.2	391.28	–
523.15 K, 6567 kPa, x1 = 0.9	244.24	–
523.15 K, 6580 kPa, x1 = 0.8	234.7	–
523.15 K, 6628 kPa, x1 = 0.5	282.38	–
523.15 K, 6748 kPa, x1 = 0.8	245.34	–
523.15 K, 6923 kPa, x1 = 0.5	298.67	–
